Assay results: the NIST ThermoML archive (doi:10.1016/j.tca.2015.01.017)
± gives the expanded uncertainty stated by the source.

How the values were obtained:
[1] = Molar enthalpy of transition or fusion; settings: DSC
[2] = DTA; for Normal melting temperature: Crystal 1

SMILES | Molar enthalpy of transition or fusion ([1]; Crystal) [kcal/mol] | Normal melting temperature [2] [°C] | Molar enthalpy of transition or fusion ([1]; Crystal 1) [kcal/mol] | Molar enthalpy of transition or fusion ([1]; Crystal 3) [kcal/mol] | Triple point temperature ([2]; Crystal 2) [K] | Triple point temperature ([2]; Crystal 3) [K] | Triple point temperature ([2]; Crystal 4) [K]
Clc1c(Cl)c(Cl)c(Cl)c(Cl)c1Cl [hexachlorobenzene] | 5.72 ± 0.17 | 231 ± 0.5 |  |  |  |  | 
Oc1c(Cl)c(Cl)c(Cl)c(Cl)c1Cl [pentachlorophenol] |  | 191.7 ± 0.5 | 3.68 ± 0.122 | 2.15 ± 0.0837 | 441.6 ± 0.5 | 340.2 ± 0.5 | 287.4 ± 0.5
